US12622910B2, “Inhibitors of Bruton's tyrosine kinase and methods of their use” (Janssen Pharmaceutica NV, priority 2021, dated 2026)

Columns and labels:
[1] = target: CB2 (h) (Homo sapiens, UniProt P34972); test: Receptor panel, Study 2; type: binding
Protocol: (§1) RESULTS AND DISCUSSION—Selectivity—The compound of Formula (III) was evaluated in three selectivity panels to assess the potential for off-target pharmacology (Table 8). […] The kinase off-target profile of The compound of Formula (III) was assessed in a full human wild-type panel using radiometric kinase activity assays (KinaseProfiler™ and IC50Profiler™; Eurofins Scientific) (Table 9; FIG. 23). The compound of Formula (III) inhibited 4/278 kinases >50% at 1 micromolar, identifying BTK and the three other kinases having analogous Cys residues with the potential for covalent inhibition (BMX, TEC, BLK). […]. The cellular kinase selectivity of The compound of Formula (III) was established in native Ramos B cell kinome assays (KiNativ™; ActivX) confirmed BTK as the primary target with inhibition of BLK and TEC inhibition detected (Table 10).

[2] = target: PDE4D2 (h) (Homo sapiens, UniProt Q08499); test: Receptor panel, Study 2; type: binding
Protocol: as §1

[3] = target: AR (h) (Homo sapiens, UniProt P10275); test: Receptor panel, Study 2; type: binding
Protocol: as §1

[4] = system: Ca channel; test: Receptor panel, Study 2; type: binding
Protocol: as §1

[5] = system: NMDA; test: Receptor panel, Study 2; type: binding
Protocol: as §1

[6] = target: PDE3A (h) (Homo sapiens, UniProt Q14432); test: Receptor panel, Study 2; type: binding
Protocol: as §1

[7] = target: MAO-A (Rattus norvegicus, UniProt P21396); test: Receptor panel, Study 2; type: binding
Protocol: as §1

[8] = target: CB1 (h) (Homo sapiens, UniProt P21554); test: Receptor panel, Study 2; type: binding
Protocol: as §1

[9] = target: N neuronal α4β2 (h) (Homo sapiens, UniProt P17787+P43681); test: Receptor panel, Study 2; type: binding
Protocol: as §1

[10] = target: mGluR5 (h) (Homo sapiens, UniProt P41594); test: Receptor panel, Study 2; type: binding
Protocol: as §1

[11] = target: Ach (h) (Homo sapiens, UniProt P22303); test: Receptor panel, Study 2; type: binding
Protocol: as §1

[12] = target: GR (h) (Homo sapiens, UniProt P04150); test: Receptor panel, Study 2; type: binding
Protocol: as §1

[13] = target: Beta2 (h) (Homo sapiens, UniProt P07550); test: Receptor panel, Study 2; type: binding
Protocol: as §1

[14] = target: T1, TEC (Homo sapiens, UniProt P42680); test: Eurofins KinaseProfiler/IC50Profiler radiometric kinase activity assay; type: biochemical
T1 construct: purchased Eurofins Scientific
T1 sequence (P42680 1-631): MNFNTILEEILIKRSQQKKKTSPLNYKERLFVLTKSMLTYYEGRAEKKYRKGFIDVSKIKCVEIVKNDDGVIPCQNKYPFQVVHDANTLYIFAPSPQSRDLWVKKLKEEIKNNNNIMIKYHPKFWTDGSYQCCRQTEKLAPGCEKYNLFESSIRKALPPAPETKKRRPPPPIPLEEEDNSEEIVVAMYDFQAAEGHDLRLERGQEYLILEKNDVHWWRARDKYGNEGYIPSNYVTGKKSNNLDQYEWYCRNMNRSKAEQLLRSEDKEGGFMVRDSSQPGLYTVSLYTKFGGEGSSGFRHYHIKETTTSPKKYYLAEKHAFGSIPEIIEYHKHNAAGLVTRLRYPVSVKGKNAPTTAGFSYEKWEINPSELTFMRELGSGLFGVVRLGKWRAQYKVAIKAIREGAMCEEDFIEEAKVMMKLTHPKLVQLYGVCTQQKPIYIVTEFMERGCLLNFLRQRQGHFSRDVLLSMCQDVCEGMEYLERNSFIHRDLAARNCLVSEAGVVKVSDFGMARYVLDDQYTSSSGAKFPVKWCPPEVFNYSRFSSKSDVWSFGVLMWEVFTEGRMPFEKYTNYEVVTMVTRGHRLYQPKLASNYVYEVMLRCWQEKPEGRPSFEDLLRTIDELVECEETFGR
Protocol: as §1

[15] = target: T2, BLK (Homo sapiens, UniProt P51451); test: as above; type: biochemical
T2 construct: purchased Eurofins Scientific
Protocol: as §1

[16] = target: BTK (Homo sapiens, UniProt Q06187); test: BTK protein occupancy in OCI-LY10 tumor lysates of NSG mice; type: in vivo; design: free BTK protein in OCI-LY10 DLBCL tumor lysates harvested using an BTK occupancy assay; endogenous in cells; host or cells: OCI-LY10 human ABC-DLBCL cells grown as SC xenograft in NSG mice; tumour lysates; conditions: for receptor occupancy at 10 mg/kg / receptor occupancy at 30 mg/kg / receptor occupancy at 100 mg/kg: OCI-Ly10, mouse
Protocol: FIG. 19 depicts BTK protein occupancy in OCI-LY10 ABC-DLBCL tumor lysates of NSG mice treated with the compound of Formula (III). Unoccupied BTK protein levels are graphed as % normalized to vehicle control BTK levels ±SEM. Female mice were implanted SC on the right flank on day 0. Tumors were established 39 days post implantation, randomized into experimental groups and dosed orally with a single dose (n=5/dose level/time point). Tumor samples were harvested 4, 12 and 24 hours after compound administration.
To evaluate the duration of signaling shutdown and occupancy of BTK protein after compound administration, we determined the amount of free BTK protein in OCI-LY10 DLBCL tumor lysates harvested using an BTK occupancy assay. […] BTK protein occupancy levels remained high with 71%, 94% and 96%, respectively, at 12 hours and 70%, 91% and 85%, respectively after 24 hours. (FIG. 19). The antitumor efficacy of compound of Formula (III) was assessed in mice bearing established SC OCI-LY10 human CD79b mutant DLBCL xenografts in female NSG mice, dosed either once (QD) or twice (BID) a day. Analysis of tumor growth inhibition was performed 14 days into the 21-day treatment period (Day 45) as that was the last day when 2/3 of the vehicle controls remained on the study. Compound of Formula (III) induced tumor growth inhibition in the OCI-LY10 model at all dose levels. […] Taken together, the in vivo data support a first in-human trial of the compound of Formula (III) in combination with Venetoclax in patients with B cell lymphomas.

[17] = 10-point concentration response, read-out: IC50 (IC50 Profiler)

BTK, sequence (Q06187 whole entry): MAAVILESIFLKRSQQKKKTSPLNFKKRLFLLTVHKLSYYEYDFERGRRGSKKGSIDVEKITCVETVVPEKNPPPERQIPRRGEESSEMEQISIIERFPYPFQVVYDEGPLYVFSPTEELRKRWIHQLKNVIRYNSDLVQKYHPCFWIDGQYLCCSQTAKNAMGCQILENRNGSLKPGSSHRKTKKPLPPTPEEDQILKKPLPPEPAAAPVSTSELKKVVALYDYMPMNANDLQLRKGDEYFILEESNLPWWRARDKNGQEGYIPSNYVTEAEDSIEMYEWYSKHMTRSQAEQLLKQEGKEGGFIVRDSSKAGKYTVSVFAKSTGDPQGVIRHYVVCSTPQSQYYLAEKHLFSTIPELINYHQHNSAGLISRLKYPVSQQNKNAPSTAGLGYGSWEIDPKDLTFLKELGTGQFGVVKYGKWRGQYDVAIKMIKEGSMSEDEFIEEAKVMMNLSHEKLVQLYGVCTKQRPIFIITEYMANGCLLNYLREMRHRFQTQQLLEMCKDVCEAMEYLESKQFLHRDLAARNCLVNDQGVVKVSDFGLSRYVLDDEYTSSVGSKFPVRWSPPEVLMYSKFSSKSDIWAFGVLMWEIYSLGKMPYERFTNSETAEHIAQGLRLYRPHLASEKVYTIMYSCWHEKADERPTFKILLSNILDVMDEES
T2 sequence (P51451 whole entry): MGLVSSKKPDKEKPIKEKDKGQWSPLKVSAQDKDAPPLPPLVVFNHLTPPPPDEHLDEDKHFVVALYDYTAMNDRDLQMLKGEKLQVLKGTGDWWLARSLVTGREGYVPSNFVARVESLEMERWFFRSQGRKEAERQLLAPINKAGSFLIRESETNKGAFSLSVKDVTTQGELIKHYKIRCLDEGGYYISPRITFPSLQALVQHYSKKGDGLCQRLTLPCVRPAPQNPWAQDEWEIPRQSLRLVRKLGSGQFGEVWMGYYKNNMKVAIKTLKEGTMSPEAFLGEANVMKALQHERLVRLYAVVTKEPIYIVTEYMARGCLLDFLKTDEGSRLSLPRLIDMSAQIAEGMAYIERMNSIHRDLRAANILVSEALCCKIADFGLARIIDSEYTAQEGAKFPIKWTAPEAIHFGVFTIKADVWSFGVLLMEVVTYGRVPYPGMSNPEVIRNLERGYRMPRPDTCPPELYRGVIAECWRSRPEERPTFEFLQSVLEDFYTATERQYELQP
MAO-A, sequence (P21396 whole entry): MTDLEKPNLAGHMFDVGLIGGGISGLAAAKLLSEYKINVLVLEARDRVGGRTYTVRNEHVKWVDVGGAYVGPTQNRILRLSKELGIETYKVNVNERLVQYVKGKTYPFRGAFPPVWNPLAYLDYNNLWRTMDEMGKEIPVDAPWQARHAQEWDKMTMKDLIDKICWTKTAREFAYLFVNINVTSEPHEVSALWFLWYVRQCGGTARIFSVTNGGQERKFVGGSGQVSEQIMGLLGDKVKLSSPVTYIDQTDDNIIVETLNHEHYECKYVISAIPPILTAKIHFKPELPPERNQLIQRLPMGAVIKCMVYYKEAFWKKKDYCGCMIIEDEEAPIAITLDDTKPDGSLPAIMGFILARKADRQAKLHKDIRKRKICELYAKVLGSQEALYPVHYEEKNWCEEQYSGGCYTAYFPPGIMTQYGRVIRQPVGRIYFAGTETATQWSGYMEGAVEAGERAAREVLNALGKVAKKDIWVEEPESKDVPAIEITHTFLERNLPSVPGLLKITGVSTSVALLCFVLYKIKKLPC
Ach (h), sequence (P22303 32-614): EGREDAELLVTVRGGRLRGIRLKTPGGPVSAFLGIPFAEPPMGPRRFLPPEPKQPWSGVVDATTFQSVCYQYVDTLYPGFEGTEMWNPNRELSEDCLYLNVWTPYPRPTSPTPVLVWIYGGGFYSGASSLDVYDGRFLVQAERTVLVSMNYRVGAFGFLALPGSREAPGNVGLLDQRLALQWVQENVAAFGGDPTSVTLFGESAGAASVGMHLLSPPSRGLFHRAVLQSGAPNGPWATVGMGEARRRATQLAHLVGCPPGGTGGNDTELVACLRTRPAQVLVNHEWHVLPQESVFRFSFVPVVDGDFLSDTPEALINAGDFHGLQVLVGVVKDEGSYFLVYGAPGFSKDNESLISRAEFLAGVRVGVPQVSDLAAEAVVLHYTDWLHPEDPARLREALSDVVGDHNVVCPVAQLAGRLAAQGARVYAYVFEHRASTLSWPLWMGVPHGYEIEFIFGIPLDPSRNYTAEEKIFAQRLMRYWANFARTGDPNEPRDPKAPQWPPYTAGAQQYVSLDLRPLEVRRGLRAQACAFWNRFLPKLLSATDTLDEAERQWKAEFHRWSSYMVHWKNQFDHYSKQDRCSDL
GR (h), sequence (P04150 whole entry): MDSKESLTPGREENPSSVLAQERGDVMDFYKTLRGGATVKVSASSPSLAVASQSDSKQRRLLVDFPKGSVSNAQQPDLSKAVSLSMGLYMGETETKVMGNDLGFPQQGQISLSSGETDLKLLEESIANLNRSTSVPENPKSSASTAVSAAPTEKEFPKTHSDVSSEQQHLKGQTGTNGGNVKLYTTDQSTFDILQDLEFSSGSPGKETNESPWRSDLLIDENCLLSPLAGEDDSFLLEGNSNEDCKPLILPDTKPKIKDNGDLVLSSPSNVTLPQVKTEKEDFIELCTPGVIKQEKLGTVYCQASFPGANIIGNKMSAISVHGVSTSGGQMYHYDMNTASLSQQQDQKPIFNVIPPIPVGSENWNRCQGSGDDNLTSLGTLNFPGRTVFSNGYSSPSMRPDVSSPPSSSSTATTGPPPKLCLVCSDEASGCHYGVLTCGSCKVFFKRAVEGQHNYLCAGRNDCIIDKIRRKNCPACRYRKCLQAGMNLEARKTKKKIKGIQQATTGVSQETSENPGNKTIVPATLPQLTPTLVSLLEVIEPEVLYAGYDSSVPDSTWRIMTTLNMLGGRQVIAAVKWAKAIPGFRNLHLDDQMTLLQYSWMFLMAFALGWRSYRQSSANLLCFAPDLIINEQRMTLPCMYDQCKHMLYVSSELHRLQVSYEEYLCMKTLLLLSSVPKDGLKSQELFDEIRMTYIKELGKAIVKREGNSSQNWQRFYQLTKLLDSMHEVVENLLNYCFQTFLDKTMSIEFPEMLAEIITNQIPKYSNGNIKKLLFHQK
PDE4D2 (h), sequence (Q08499 303-809 limits assumed): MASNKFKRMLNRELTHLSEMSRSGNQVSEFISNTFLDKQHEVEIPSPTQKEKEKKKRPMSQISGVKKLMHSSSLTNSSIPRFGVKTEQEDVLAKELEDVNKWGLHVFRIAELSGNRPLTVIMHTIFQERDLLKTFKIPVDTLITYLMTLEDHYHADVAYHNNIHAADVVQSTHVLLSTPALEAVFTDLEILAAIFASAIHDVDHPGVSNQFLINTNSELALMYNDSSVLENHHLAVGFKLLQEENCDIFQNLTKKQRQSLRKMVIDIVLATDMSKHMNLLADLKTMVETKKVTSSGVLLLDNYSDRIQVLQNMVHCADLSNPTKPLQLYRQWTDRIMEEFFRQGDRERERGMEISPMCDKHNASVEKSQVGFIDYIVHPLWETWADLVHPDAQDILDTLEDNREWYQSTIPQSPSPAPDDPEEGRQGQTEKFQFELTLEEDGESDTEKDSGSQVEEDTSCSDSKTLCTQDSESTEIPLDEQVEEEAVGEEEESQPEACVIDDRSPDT
mGluR5 (h), sequence (P41594 21-1212): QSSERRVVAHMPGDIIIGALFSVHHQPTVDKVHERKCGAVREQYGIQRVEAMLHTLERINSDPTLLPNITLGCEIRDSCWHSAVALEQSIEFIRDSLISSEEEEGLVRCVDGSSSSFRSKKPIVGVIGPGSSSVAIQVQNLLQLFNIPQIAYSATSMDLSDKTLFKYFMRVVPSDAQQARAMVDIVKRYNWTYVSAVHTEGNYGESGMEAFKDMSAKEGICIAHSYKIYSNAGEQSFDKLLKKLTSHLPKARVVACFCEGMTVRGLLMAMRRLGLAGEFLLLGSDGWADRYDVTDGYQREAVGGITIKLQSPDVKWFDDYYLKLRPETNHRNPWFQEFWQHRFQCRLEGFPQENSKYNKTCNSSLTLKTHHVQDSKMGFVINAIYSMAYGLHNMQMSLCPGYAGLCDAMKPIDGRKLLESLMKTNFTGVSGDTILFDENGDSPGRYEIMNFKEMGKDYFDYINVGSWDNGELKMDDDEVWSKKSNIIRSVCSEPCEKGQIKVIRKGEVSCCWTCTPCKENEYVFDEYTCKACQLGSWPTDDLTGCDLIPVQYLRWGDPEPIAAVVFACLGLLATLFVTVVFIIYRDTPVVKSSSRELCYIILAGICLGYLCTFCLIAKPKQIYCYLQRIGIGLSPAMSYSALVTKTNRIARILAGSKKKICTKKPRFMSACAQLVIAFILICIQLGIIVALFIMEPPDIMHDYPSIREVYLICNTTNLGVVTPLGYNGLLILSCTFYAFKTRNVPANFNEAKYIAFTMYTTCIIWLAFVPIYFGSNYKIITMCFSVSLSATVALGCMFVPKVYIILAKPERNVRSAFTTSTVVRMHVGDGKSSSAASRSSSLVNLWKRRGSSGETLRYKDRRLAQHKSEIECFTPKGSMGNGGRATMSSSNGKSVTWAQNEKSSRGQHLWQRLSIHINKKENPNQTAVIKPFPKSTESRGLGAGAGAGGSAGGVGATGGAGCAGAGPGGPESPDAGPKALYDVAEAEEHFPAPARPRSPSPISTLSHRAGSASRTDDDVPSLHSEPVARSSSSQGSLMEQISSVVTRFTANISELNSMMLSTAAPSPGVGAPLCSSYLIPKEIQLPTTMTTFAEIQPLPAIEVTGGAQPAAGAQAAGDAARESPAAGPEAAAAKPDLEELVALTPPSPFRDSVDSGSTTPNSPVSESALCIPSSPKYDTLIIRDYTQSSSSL

C=CC(=O)N[C@H]1CCC[C@H]1NC(=O)c1sc2nccc3c2c1NC(=O)N3c1cnc(CC(C)C)cc1C (atropisomer, axis not shown) [compound of Formula (III), N-((1R,2S)-2-Acrylamidocyclopentyl)-5-(S)-(6-isobutyl-4-methylpyridin-3-yl)-4-oxo-4,5-dihydro-3H-1-thia-3,5,8-triazaacenaphthylene-2-carboxamide]
inhibition at 10 µM [1]: < 10% | inhibition at 10 µM [2]: < 10% | inhibition at 10 µM [3]: < 10% | % Inhibition at 10 μM [4]: — (no inhibition observed) | % Inhibition at 10 μM [5]: — (no inhibition observed) | inhibition at 10 µM [6]: < 10% | inhibition at 10 µM [7]: 14% | inhibition at 10 µM [8]: < 10% | inhibition at 10 µM [9]: < 10% | inhibition at 10 µM [10]: < 10% | inhibition at 10 µM [11]: 11% | inhibition at 10 µM [12]: < 10% | inhibition at 10 µM [13]: < 10% | inhibition at 1 µM ([14]; 1 μM): 88% | IC50 [14, 17]: 303 nM | inhibition at 1 µM ([15]; 1 μM): 54% | IC50 [15, 17]: 3130 nM | BTK protein occupancy in tumor ([16]; 1 mg/kg): No BTK occupancy | BTK protein occupancy in tumor ([16]; 3 mg/kg): No BTK occupancy | receptor occupancy at 10 mg/kg ([16]; 4 hours): 54% | receptor occupancy at 10 mg/kg ([16]; 12 hours): 71% | receptor occupancy at 10 mg/kg ([16]; 24 hours): 70% | receptor occupancy at 30 mg/kg ([16]; 4 hours): 90% | receptor occupancy at 30 mg/kg ([16]; 12 hours): 94% | receptor occupancy at 30 mg/kg ([16]; 24 hours): 91% | receptor occupancy at 100 mg/kg ([16]; 4 hours): 95% | receptor occupancy at 100 mg/kg ([16]; 12 hours): 96% | receptor occupancy at 100 mg/kg ([16]; 24 hours): 85%
